# Laboratory results from the OPERA property sets (Mansouri et al. 2018).
# Conditions: not given
Structure (SMILES),boiling point [°C],melting point [°C],log10 biodegradation half-life (days),log10 vapour pressure (mmHg),ready biodegradability,log10 Henry constant (atm·m³/mol),log10 Koa,log10 Koc (L/kg)
CCC(C)CCC(C)O (stereo not drawn),170,-61,–,–,–,–,–,–
CCCCCCCCCCC,196,-25.6,0.845,-0.385,readily biodegradable,–,–,–
CN(C1CCCCC1)C1CCCCC1,265,–,–,–,–,–,–,–
Clc1cccc2nccc(Cl)c12,–,118,–,–,–,–,–,–
COC(=O)C(F)(F)C(F)(F)F,59.5,–,–,–,–,–,–,–
Cc1ccc(/N=N/c2c(O)ccc3ccccc23)c(C)c1,–,166,–,–,–,–,–,–
NC(=O)CN1CCCC1=O,–,152,–,–,–,–,–,–
Cc1ccnc(Cl)c1,192,115,–,–,–,–,–,–
Nc1ccc(S(N)(=O)=O)cc1,–,–,–,–,not readily biodegradable,–,–,–
CCC(=O)C1CCCCC1,196,–,–,–,–,–,–,–
C/C(Cl)=C/C(=O)O,195,61,–,–,–,–,–,–
Clc1cccc2ccccc12,259,-2.5,–,-1.54,not readily biodegradable,-3.45,5.8,–
O=c1[nH]c(=O)n(C2CCCO2)cc1F (stereo not drawn),–,172,–,–,–,–,–,–
Oc1ccccc1-c1ccccc1O,320,109,–,–,–,–,–,–
Clc1ccc(Br)s1,–,-20,–,–,–,–,–,–
ClC1=C(Cl)C2(Cl)[C@@H]3C[C@@H](Cl)[C@@H](Cl)[C@@H]3C1(Cl)C2(Cl)Cl (mixture of isomers),–,–,–,–,–,–,8.89,–
Cc1ccc(C(C)C)cc1,177,-68.5,–,0.19,readily biodegradable,–,–,–
Cc1ccc(CC(=O)O)cc1,265,93,–,–,–,–,–,–
O=C(O)c1ccccc1F,–,126,–,–,–,–,–,–
Cc1cccc(OCC(O)CNC(C)C)c1 (stereo not drawn),–,76,–,–,–,–,–,–
OCCCCC(F)(F)F,148,–,–,–,–,–,–,–
CCC(=O)c1c(O)cc(O)cc1O,–,176,–,–,–,–,–,–
Oc1c(Br)cc(Br)c(Br)c1Br,–,114,–,–,–,–,–,–
Brc1cn[nH]c1,255,94.5,–,–,–,–,–,–
O=C(CCc1ccccc1)CCc1ccccc1,352,13.5,–,–,–,–,–,–
CC(C)(C)c1cc(C=O)cc(C(C)(C)C)c1O,–,186,–,–,–,–,–,–

Structure (SMILES),boiling point [°C],melting point [°C],log10 biodegradation half-life (days),log10 vapour pressure (mmHg),ready biodegradability,log10 Henry constant (atm·m³/mol),log10 Koa,log10 Koc (L/kg)
c1ccc(C2=NNCC2)cc1,–,45.8,–,–,–,–,–,–
O=C(OC(=O)C(c1ccccc1)c1ccccc1)C(c1ccccc1)c1ccccc1,–,98,–,–,–,–,–,–
CC(C)CN(C)C,80.5,–,–,–,–,–,–,–
CC(=O)N(C)C(=O)COC(=O)c1ccccc1,–,102,–,–,–,–,–,–
CCOC(=O)C(C)(C)C,118,-89.5,–,1.25,–,–,–,–
CC(C)(C)CC(C)(C)c1ccc(O)c(Cc2ccc(Cl)cc2Cl)c1,–,78,–,–,–,–,–,–
CCCCCCCCCCCCCCCCCCCCCCCCCC,412,56.4,2,-6.33,readily biodegradable,–,–,–
O=C(Cl)C(Cl)Cl,108,–,–,1.36,–,–,–,–
Cc1cc(C)c(Cl)c(C)c1,205,–,–,–,–,–,–,–
CCOP(=S)(NC(C)C)Oc1ccccc1C(=O)OC(C)C (stereo not drawn),–,-12,–,-5.52,–,–,–,2.78
CCCCCCCCCCCCCC(=O)Cl,–,-1,–,–,–,–,–,–
CC(C)C1CCCCC1,155,-89.4,–,0.681,–,–,–,–
CCCCCCCCOC(=O)CCC,244,-55.6,–,–,–,–,–,–
CC(=O)NCc1c(I)c(NC(C)=O)c(I)c(C(=O)O)c1I,–,255,–,–,–,–,–,–
c1ccc(-c2ccc(-c3ccccc3)o2)cc1,344,91,–,–,–,–,–,–
CC1(C)CCCNC1,137,–,–,–,–,–,–,–
CC[C@]1(O)CC[C@H]2[C@@H]3CCC4=CCCC[C@@H]4[C@H]3CC[C@@]21C,–,77,–,–,–,–,–,–
CCOC(=O)C(CC)C(=O)OCC,208,–,–,–,–,–,–,–
O=C(CCCl)NCc1ccccc1,–,94,–,–,–,–,–,–
CCCCCCCCCCCC[N+](C)(C)CC(=O)[O-],–,–,–,–,readily biodegradable,–,–,–
CC=COCC,71.5,–,–,–,–,–,–,–
O=C1CN=C(c2ccccc2)c2cc(Cl)ccc2N1CC(F)(F)F,–,165,–,–,–,–,–,–
O=C(Oc1ccccc1)c1ccccc1,314,71,–,-2.77,–,–,–,3.16
CC1Cc2ccccc2CC1C (stereo not drawn),–,-5,–,–,–,–,–,–
CCCCN(CCO)CCO,275,–,–,–,–,–,–,–
CCCNC(=O)COC(=O)c1ccccc1,–,89.5,–,–,–,–,–,–

Structure (SMILES),boiling point [°C],melting point [°C],log10 biodegradation half-life (days),log10 vapour pressure (mmHg),ready biodegradability,log10 Henry constant (atm·m³/mol),log10 Koa,log10 Koc (L/kg)
O=C(O)C1CCC1,190,-2,–,–,–,–,–,–
Cc1cc(=O)n(-c2ccccc2)[nH]1,–,128,–,–,–,–,–,–
Cc1c[nH]c(=O)[nH]c1=O,–,316,–,–,–,–,–,–
Fc1ccc(Cl)cc1,130,-26.8,–,–,–,–,–,–
OCCNCCO,269,28,–,-3.55,readily biodegradable,–,–,0.6
O=[N+]([O-])c1ccc(Nc2ccc(O)cc2)c([N+](=O)[O-])c1,–,194,–,-11.4,–,–,–,–
Oc1c(F)c(F)c(C(F)(F)F)c(F)c1F,164,–,–,–,–,–,–,–
CN1[C@H]2CC[C@@H]1[C@@H](C(=O)O)[C@H](O)C2,–,205,–,–,–,–,–,–
Clc1nc2ccccc2o1,202,–,–,–,–,–,–,–
FC(F)(F)C(F)(F)C(F)(F)C(F)(F)OC(F)(F)C(F)(F)C(F)(F)C(F)(F)F,102,-100,–,–,–,–,–,–
CC[C@H](C)[C@@H](C)[C@@H](C)O,166,–,–,–,–,–,–,–
CC1CCCC(O)C1 (stereo not drawn),163,–,–,-0.32,–,-5.44,–,–
N#CCc1cccc2ccccc12,–,32.5,–,–,–,–,–,–
CC(CO)CC(F)(F)F (stereo not drawn),132,–,–,–,–,–,–,–
CCC(CC)C(CC)CC,164,–,–,–,–,–,–,–
CCCCCCCCCCCCOC(=O)c1ccc(N)cc1,–,82,–,–,–,–,–,–
CN(C)CCc1c[nH]c2cccc(OP(=O)(O)O)c12,–,224,–,–,–,–,–,–
Cc1c(Cc2cc(C(C)(C)C)c(O)c(C(C)(C)C)c2)c(C)c(Cc2cc(C(C)(C)C)c(O)c(C(C)(C)C)c2)c(C)c1Cc1cc(C(C)(C)C)c(O)c(C(C)(C)C)c1,–,244,–,–,not readily biodegradable,–,–,–
NC[C@H]1O[C@H](O[C@H]2[C@H](O[C@@H]3O[C@H](CO)[C@@H](O)[C@H]3O)C(O)[C@H](N)C[C@@H]2N)[C@H](N)[C@@H](O)[C@@H]1O (stereo partly drawn),–,194,–,–,–,–,–,–
C=C1CCO[C@]2([C@H](O)[C@@](C)(O)CO)NC(=O)[C@@]1(O)NC2=O,–,188,–,–,–,–,–,–
CCCCCCCC/C=C\CCCCCCCCO,–,–,–,–,readily biodegradable,–,–,–
Cc1cc(N)cc(C)n1,246,192,–,–,–,–,–,–
O=C(O)CNC(=O)OCc1ccccc1,–,121,–,–,–,–,–,–
Cc1ccc(C(=O)O)c([N+](=O)[O-])c1O,–,186,–,–,–,–,–,–
CCCCN(CCCC)C(C(N)=O)c1ccc(OC)cc1 (stereo not drawn),–,134,–,–,–,–,–,–
FC(F)(F)C(F)(F)F,-78.1,-101,–,4.4,–,1.31,–,–

Structure (SMILES),boiling point [°C],melting point [°C],log10 biodegradation half-life (days),log10 vapour pressure (mmHg),ready biodegradability,log10 Henry constant (atm·m³/mol),log10 Koa,log10 Koc (L/kg)
CCCCCCCOC(=O)CCCCCC,277,-33,–,–,–,–,–,–
C=CCC[C@@H](C)CC,113,–,–,–,–,–,–,–
CC(C)CC(Cl)Cl,130,–,–,–,–,–,–,–
Nc1ccccc1F,175,-34.6,–,–,–,–,–,–
N#Cc1ccncc1,214,79,–,–,–,-6.03,–,–
CCC(C)C(C)C(C)C (stereo not drawn),139,–,–,0.955,–,–,–,–
COP(=S)(OC)Oc1nc(Cl)c(Cl)cc1Cl,–,43,–,-4.38,–,–,–,3.52
NC(=O)c1ccccc1[N+](=O)[O-],317,177,–,–,–,–,–,1.45
C=C(C)[C@@H]1CC[C@]2(CO)CC[C@]3(C)[C@H](CC[C@@H]4[C@@]5(C)CC[C@H](O)C(C)(C)[C@@H]5CC[C@]43C)[C@@H]12,–,250,–,–,–,–,–,–
CC(C)(C)N=C=O,–,85.5,–,–,–,–,–,–
O=NN(CCCl)C(=O)NCCCl,–,31,–,–,–,–,–,–
CCOC(=O)C(C(=O)OCC)C(C(=O)OCC)C(=O)OCC,–,77,–,–,–,–,–,–
O=C(O)CCSCCC(=O)O,–,129,–,–,readily biodegradable,–,–,–
O=[N+]([O-])c1cc(C(F)(F)F)cc([N+](=O)[O-])c1Cl,–,57,–,–,–,–,–,–
C#CCOS(=O)OC1CCCCC1Oc1ccc(C(C)(C)C)cc1 (stereo not drawn),–,–,–,-6.52,–,–,–,3.6
O=CN(c1ccccc1)c1ccccc1,338,73.5,–,–,–,–,–,–
C=C(C)CCC(C)=O,150,–,–,–,–,–,–,–
C1CC1,-32.8,-127,–,3.73,–,–,–,–
CCC(C)(C)Br,108,–,–,–,–,–,–,–
O=C(OCCOc1ccc(Cl)cc1Cl)c1ccccc1,–,66,–,–,–,–,–,–
C=C1C(=O)O[C@@H]2C[C@@H](C)[C@@H]3C=CC(=O)[C@@]3(C)[C@@H](O)[C@H]12,–,168,–,–,–,–,–,–
CCC(=O)c1cc(C)ccc1O,–,2,–,–,–,–,–,–
CNC(N)=O,–,103,–,–,–,–,–,–
Clc1cc(Cl)c(Cl)cc1Cl,244,140,–,-2.27,not readily biodegradable,-3,5.63,4.1
CC(=O)c1ccc(Cl)s1,–,52,–,–,–,–,–,–
O=C(O)c1cc(=O)c2cccc(O)c2[nH]1,–,289,–,–,–,–,–,–

# Same assay, conditions: fish
Structure (SMILES),log10 BCF,log10 biotransformation half-life (days)
CCOP(=S)(NC(C)C)Oc1ccccc1C(=O)OC(C)C (stereo not drawn),2.12,-0.51
Clc1cc(Cl)c(Cl)cc1Cl,3.44,1.79
